The values below come from patent publication US20260257998A1, “ERR MODULATORS” (University of Health Sciences and Pharmacy in St. Louis, priority 2023, published 2026).

SMILES strings stand for the structures.

One assay addresses T1, ERRα (Homo sapiens, UniProt P11474).
T1 construct: expressed in transfected cells; host or cells: HEK293
T1 sequence (P11474 1-423): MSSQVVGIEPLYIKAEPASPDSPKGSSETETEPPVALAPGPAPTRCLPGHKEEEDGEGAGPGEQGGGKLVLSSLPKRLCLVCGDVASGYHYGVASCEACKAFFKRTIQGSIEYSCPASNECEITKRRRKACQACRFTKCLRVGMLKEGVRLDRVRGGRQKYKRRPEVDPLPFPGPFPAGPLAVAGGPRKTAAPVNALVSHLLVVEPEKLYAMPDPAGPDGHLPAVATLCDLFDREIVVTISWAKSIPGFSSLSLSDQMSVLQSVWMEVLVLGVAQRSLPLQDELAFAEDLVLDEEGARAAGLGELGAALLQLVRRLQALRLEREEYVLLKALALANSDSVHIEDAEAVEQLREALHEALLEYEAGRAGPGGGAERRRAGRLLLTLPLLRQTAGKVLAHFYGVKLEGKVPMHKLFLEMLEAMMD
In words: ERRE luciferase reporter assay in HEK293 cells transfected with pcDNA3.1 ERRα. The class given is cell-based. Also on record: key to EC50 (ERRα): ***<1 μM; **1-5 μM; *>5 μM; i.a. (inactive). As to conditions: 24 hours treatment, luciferase activity. Here is the method:
(§1) HEK293 cells were maintained in Dulbecco's modified Eagles medium (DMEM) supplemented with 10% fetal bovine serum at 37° C. under 5% CO2. […] Cells were transfected with ERRE reporter construct and pcDNA3.1 ERRα or ERRγ. Twenty-four-hours post-transfection, the cells were treated with vehicle or compound (various concentrations) for 24 hours (4 wells per dose). Luciferase activity was measured using the One-Glo Tox luciferase reporter assay system (Promega) and […] were calculated using GraphPad Prism software.
Background: Reporter assays use an easily measured gene product as a stand-in for the process of interest.

A further assay addresses T2, ERRγ (Homo sapiens, UniProt P62508).
T2 construct: expressed in transfected cells; host or cells: HEK293
T2 sequence (P62508 1-458): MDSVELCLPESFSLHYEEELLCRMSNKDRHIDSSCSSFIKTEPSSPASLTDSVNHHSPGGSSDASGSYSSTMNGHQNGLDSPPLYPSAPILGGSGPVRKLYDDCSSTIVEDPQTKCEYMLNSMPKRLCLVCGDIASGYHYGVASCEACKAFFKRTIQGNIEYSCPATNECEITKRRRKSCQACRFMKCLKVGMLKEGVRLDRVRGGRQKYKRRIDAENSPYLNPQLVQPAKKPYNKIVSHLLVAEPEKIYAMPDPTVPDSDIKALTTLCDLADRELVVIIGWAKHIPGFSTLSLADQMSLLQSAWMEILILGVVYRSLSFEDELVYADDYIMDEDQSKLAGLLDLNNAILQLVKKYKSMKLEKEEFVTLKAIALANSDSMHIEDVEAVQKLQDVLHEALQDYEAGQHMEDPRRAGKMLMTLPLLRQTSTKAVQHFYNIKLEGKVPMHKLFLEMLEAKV
In words: ERRE luciferase reporter assay in HEK293 cells transfected with pcDNA3.1 ERRγ. The class given is cell-based. The settings on record: 24 hours treatment, luciferase activity. Details: key to EC50 (ERRγ): ***<1 μM; **1-5 μM; *>5 μM; i.a. (inactive). The protocol: as §1

As to `Brc1ccc(C2=NNC(c3ccc4ccccc4c3)C2)cc1` (centres unmarked) [Entry 81, 3-(4-bromophenyl)-5-(naphthalen-2-yl)-4,5-dihydro-1H-pyrazole], on ERRα, the “EC50 (ERRα)” value is on record as “i.a”. Besides, the “EC50 (ERRγ)” value on ERRγ is recorded as “i.a”.

As a reminder, the EC50 is the midpoint of the concentration-response curve. For `Oc1ccccc1C1CC(c2ccccc2)=NN1` (centres unmarked) [Entry 34, 2-(3-Phenyl-4,5-dihydro-1H-pyrazol-5-yl)phenol], the EC50 at ERRα is > 5000 nM; at ERRγ, 1000 to 5000 nM.

On to `COc1cccc(C2CC(c3ccc(Br)cc3)=NN2)c1O` (centres unmarked) [Entry 36, 2-(3-(4-Bromophenyl)-4,5-dihydro-1H-pyrazol-5-yl)-6-methoxyphenol], for which the EC50 on ERRα and on ERRγ was < 1000 nM each time.

Regarding `Oc1ccc(C2CC(c3ccc(Cl)cc3)=NN2)cc1` (centres unmarked) [Entry 7, 4-(3-(4-Chlorophenyl)-4,5-dihydro-1H-pyrazol-5-yl)phenol], the EC50 on ERRα and at ERRγ was > 5000 nM each time.

Consider `Oc1ccccc1C1=NNC(c2ccc(Cl)cc2)C1` (centres unmarked) [Entry 66, 2-(5-(4-chlorophenyl)-4,5-dihydro-1H-pyrazol-3-yl)phenol], for which the EC50 on ERRα and on ERRγ was < 1000 nM in each case.

Regarding `COc1ccc(C2=NNC(c3ccccc3)C2)c(O)c1` (centres unmarked) [Entry 52, 5-Methoxy-2-(5-phenyl-4,5-dihydro-1H-pyrazol-3-yl)phenol], the EC50 on ERRα and on ERRγ was < 1000 nM in each case.

For the compound `Oc1ccc(C2CC(c3ccc(Br)cc3)=NN2)cc1` (centres unmarked) [Entry 80, 4-(3-(4-bromophenyl)-4,5-dihydro-1H-pyrazol-5-yl)phenol], the EC50 at ERRα was < 1000 nM; at ERRγ, 1000 to 5000 nM.

As for `Oc1cccc(C2CC(c3cccc(Br)c3)=NN2)c1` (centres unmarked) [Entry 97, 3-(3-(3-bromophenyl)-4,5-dihydro-1H-pyrazol-5-yl)phenol], the EC50 at ERRα and at ERRγ was 1000 to 5000 nM throughout.

Consider `Oc1ccc(C2CC(c3cccc(C(F)(F)F)c3)=NN2)cc1` (centres unmarked) [Entry 82, 4-(3-(3-(trifluoromethyl)phenyl)-4,5-dihydro-1H-pyrazol-5-yl)phenol], for which, on ERRα, the “EC50 (ERRα)” value is on record as “i.a”. Besides, the “EC50 (ERRγ)” value at ERRγ is “i.a”.

Consider `Oc1ccccc1C1CC(c2ccc(C(F)(F)F)cc2)=NN1` (centres unmarked) [Entry 40, 2-(3-(4-(Trifluoromethyl)phenyl)-4,5-dihydro-1H-pyrazol-5-yl)phenol], for which the half-maximal effective concentration (EC50) is < 1000 nM at ERRα and 1000 to 5000 nM on ERRγ.

As to `Oc1ccc(C2CC(c3ccc(C(F)(F)F)cc3)=NN2)cc1` (centres unmarked) [Entry 73, 4-(3-(4-(trifluoromethyl)phenyl)-4,5-dihydro-1H-pyrazol-5-yl)phenol], the EC50 at ERRα and at ERRγ was 1000 to 5000 nM each time.

For `CC(C)c1ccc(O)c(C2CC(c3ccc(F)cc3)=NN2)c1` (centres unmarked) [Entry 63, 2-(3-(4-fluorophenyl)-4,5-dihydro-1H-pyrazol-5-yl)-4-isopropylphenol], the “EC50 (ERRα)” value on ERRα is given as “i.a”. For the same compound, at ERRγ, the “EC50 (ERRγ)” value is “i.a”.

In the case of `COc1cccc(C2=NNC(c3ccccc3O)C2)c1` (centres unmarked) [Entry 62, 2-(3-(3-methoxyphenyl)-4,5-dihydro-1H-pyrazol-5-yl)phenol], the EC50 on ERRα lay in the range of 1000 to 5000 nM. Further, at ERRγ, the “EC50 (ERRγ)” value is reported as “i.a”.

For `CCc1ccccc1C1CC(c2ccccc2O)=NN1` (centres unmarked) [Entry 22, 2-(5-(2-Ethylphenyl)-4,5-dihydro-1H-pyrazol-3-yl)phenol], on ERRα, the “EC50 (ERRα)” value is “i.a”. Further, at ERRγ, the “EC50 (ERRγ)” value is given as “i.a”.

Consider `Oc1ccc(C2CC(c3ccc(F)cc3)=NN2)cc1` (centres unmarked) [Entry 85, 4-(3-(4-fluorophenyl)-4,5-dihydro-1H-pyrazol-5-yl)phenol], for which the EC50 on ERRα and at ERRγ was > 5000 nM throughout.

As for `Oc1ccccc1C1=NNC(c2ccc3ccccc3c2)C1` (centres unmarked) [Entry 21, 2-(5-(Naphthalen-2-yl)-4,5-dihydro-1H-pyrazol-3-yl)phenol], the “EC50 (ERRα)” value on ERRα is on record as “i.a”. For the same compound, the EC50 on ERRγ was < 1000 nM.

Turning to `Oc1ccccc1C1=NNC(c2ccccc2)C1` (centres unmarked) [Entry 50, 2-(5-Phenyl-4,5-dihydro-1H-pyrazol-3-yl)phenol], the EC50 on ERRα is < 1000 nM; at ERRγ, 1000 to 5000 nM.

`Clc1ccccc1C1=NNC(c2ccc3ccccc3c2)C1` (centres unmarked) [Entry 101, 3-(2-chlorophenyl)-5-(naphthalen-2-yl)-4,5-dihydro-1H-pyrazole]: the EC50 on ERRα and on ERRγ was < 1000 nM in each case.

For `Oc1ccccc1C1CC(c2ccc(Cl)cc2)=NN1` (centres unmarked) [Entry 47, 2-(3-(4-Chlorophenyl)-4,5-dihydro-1H-pyrazol-5-yl)phenol], the figures for the EC50 at ERRα and at ERRγ were > 5000 nM and 1000 to 5000 nM, respectively.

Turning to `Cc1ccc(C2CC(c3ccccc3)=NN2)c(O)c1` (centres unmarked) [Entry 38, 5-Methyl-2-(3-phenyl-4,5-dihydro-1H-pyrazol-5-yl)phenol], the EC50 on ERRα and on ERRγ was 1000 to 5000 nM each time.

As for `Clc1ccc(C2CC(c3ccccc3Br)=NN2)cc1Cl` (centres unmarked) [Entry 111, 3-(2-bromophenyl)-5-(3,4-dichlorophenyl)-4,5-dihydro-1H-pyrazole], the “EC50 (ERRα)” value on ERRα is recorded as “i.a”. For the same compound, the “EC50 (ERRγ)” value at ERRγ is reported as “i.a”.

For `Fc1cccc(C2=NNC(c3ccc4ccccc4c3)C2)c1` (centres unmarked) [Entry 88, 3-(3-fluorophenyl)-5-(naphthalen-2-yl)-4,5-dihydro-1H-pyrazole], on ERRα, the “EC50 (ERRα)” value is reported as “i.a”. The compound also displayed an EC50 at ERRγ of 1000 to 5000 nM.

Consider `Oc1c(Cl)cccc1C1CC(c2ccc(Br)cc2)=NN1` (centres unmarked) [Entry 45, 2-(3-(4-Bromophenyl)-4,5-dihydro-1H-pyrazol-5-yl)-6-chlorophenol], for which the EC50 on ERRα and on ERRγ was 1000 to 5000 nM in each case.

Turning to `Oc1ccccc1C1=NNC(c2c[nH]cn2)C1` (centres unmarked) [Entry 109, 2-(5-(1H-imidazol-4-yl)-4,5-dihydro-1H-pyrazol-3-yl)phenol], on ERRα, the “EC50 (ERRα)” value is given as “i.a”. Besides, at ERRγ, the “EC50 (ERRγ)” value is on record as “i.a”.

Consider `Fc1ccccc1C1=NNC(c2ccc(Cl)c(Cl)c2)C1` (centres unmarked) [Entry 110, 5-(3,4-dichlorophenyl)-3-(2-fluorophenyl)-4,5-dihydro-1H-pyrazole], for which the “EC50 (ERRα)” value at ERRα is reported as “i.a”. The “EC50 (ERRγ)” value on ERRγ is recorded as “i.a”.

With `Oc1ccccc1C1=NNC(c2ncc[nH]2)C1` (centres unmarked) [Entry 92, 2-(5-(1H-imidazol-2-yl)-4,5-dihydro-1H-pyrazol-3-yl)phenol], the half-maximal effective concentration (EC50) is > 5000 nM at ERRα and 1000 to 5000 nM at ERRγ.

Consider `Oc1ccccc1C1CC(c2cccc(Cl)c2)=NN1` (centres unmarked) [Entry 142, 2-(3-(3-chlorophenyl)-4,5-dihydro-1H-pyrazol-5-yl)phenol], for which the EC50 at ERRα and at ERRγ was 1000 to 5000 nM throughout.

Consider `Oc1ccc(C2=NNC(c3ccc(Br)cc3)C2)cc1` (centres unmarked) [Entry 89, 4-(5-(4-bromophenyl)-4,5-dihydro-1H-pyrazol-3-yl)phenol], for which the EC50 on ERRα and on ERRγ was > 5000 nM in each case.

Take `Oc1ccccc1C1CC(c2ccncc2)=NN1` (centres unmarked) [Entry 2, 2-(3-(pyridin-4-yl)-4,5-dihydro-1H-pyrazol-5-yl)phenol]: the “EC50 (ERRα)” value at ERRα was “i.a”. In addition, on ERRγ, the EC50 was > 5000 nM.

For the compound `Oc1cccc(C2CC(c3ccc(C(F)(F)F)cc3)=NN2)c1` (centres unmarked) [Entry 74, 3-(3-(4-(trifluoromethyl)phenyl)-4,5-dihydro-1H-pyrazol-5-yl)phenol], the EC50 at ERRα and at ERRγ was 1000 to 5000 nM throughout.

`Oc1ccccc1C1CC(c2cccs2)=NN1` (centres unmarked) [Entry 17, 2-(3-(Thiophen-2-yl)-4,5-dihydro-1H-pyrazol-5-yl)phenol]: the EC50 at ERRα and at ERRγ was > 5000 nM each time.

As to `Oc1cc(Br)ccc1C1CC(c2ccc(Br)cc2)=NN1` (centres unmarked) [Entry 118, 5-bromo-2-(3-(4-bromophenyl)-4,5-dihydro-1H-pyrazol-5-yl)phenol], the “EC50 (ERRα)” value on ERRα is given as “i.a”. In addition, at ERRγ, the “EC50 (ERRγ)” value is listed as “i.a”.

With `Cc1ccc(C2CC(c3cc(C(F)(F)F)cc(C(F)(F)F)c3)=NN2)c(O)c1` (centres unmarked) [Entry 65, 2-(3-(3,5-bis(trifluoromethyl)phenyl)-4,5-dihydro-1H-pyrazol-5-yl)-5-methylphenol], the “EC50 (ERRα)” value on ERRα is listed as “i.a”. Also, the “EC50 (ERRγ)” value at ERRγ is “i.a”.

Consider `Oc1cccc(C2CC(c3ccccc3O)=NN2)c1` (centres unmarked) [Entry 18, 2-(5-(3-Hydroxyphenyl)-4,5-dihydro-1H-pyrazol-3-yl)phenol], for which the EC50 on ERRα and at ERRγ was 1000 to 5000 nM in each case.
